# Experimental data: US20110052740A1, “Skin Circulation-Improving Agent And Skin Temperature-Elevating Agent” (SHISEIDO COMPANY, LTD., priority 2008, published 2011)
# What was measured:
# [1] = Study of effect on skin temperature (smelling of test substance, body temperature logger); format: in vivo, human; conditions: for skin temperatures of the fingers: one person, vapor inhaled 3 min from impregnated cotton piece under the nose, 25° C., humidity 50%, FIG. 1; for skin temperatures of the cheeks / skin temperatures of the toes: smell taken with the nose, not illustrated by data
# Protocol: The skin temperature of fingers was measured by use of 8ch Body Temperature Logger (supplied by Nikkiso-Therm Co., Ltd.), and a change in skin temperature due to smelling of a test substance was investigated. The effect on the peripheral skin temperature was thus studied. A solvent extract of a common jasmine (Jasminum officinale) belonging to the Jasminum genus in the Oleaceae family was used as a control, and the evaluation was made in the same manner.
# A person was employed as a subject, and the test was made in a constant temperature and humidity room at a temperature of 25° C. and a humidity of 50%.
# The subject was seated on an easy chair and allowed to take a rest for 30 minutes. […] The change in peripheral skin temperature was evaluated by use of a value (T value) obtained by subtracting a mean value of the skin temperatures at the two sites of the chest from the mean value of the skin temperatures at the two fingertip sites.
# One sequence of measurement tests was composed of (A) a rest for three minutes, (B) attaching of an odorless cotton piece under the nose for three minutes, (C) a rest for three minutes, (D) attaching of a test sample-impregnated cotton piece under the nose for three minutes, (E) a rest for three minutes, (F) attaching of an odorless cotton piece under the nose for three minutes, and (G) a rest for three minutes. The skin temperature was measured successively during the one sequence, and the T values were calculated.
# The T values obtained at the times of (B) and (F), at each of which the odorless cotton piece was attached, were taken as the controls and were compared with the T value obtained at the time of (D), at which the vapor of the test sample was inhaled. The effect of each substance on the skin temperature was thus investigated. Specifically, the formula shown below was utilized.
# Skin temperature change (° C.)=T value (D)−(mean value of T value (B) and T value (F))
# sympathetic nerve = experiment: Sympathetic nerve suppressing effect (confirmed by the inventors, no method given); conditions: statement without data
# [2] = Study of effect on skin blood circulation (laser Doppler flow-meter, smelling of test sample); format: in vivo, human; conditions: general statement of the inventors' findings; no data shown for substances other than the Arabian jasmine extract
# Protocol: The skin blood circulation rate of fingers was measured by use of the laser Doppler flow-meter (ADVANCE LASER FLOW-METER ALF21), and the effect of the Arabian jasmine extract on the skin blood circulation was evaluated.
# Six persons (men and women) were employed as subjects, and the test was made in a constant temperature and humidity room having been adjusted at a temperature of 22° C. and a humidity of 45%. Each of the subjects was seated on an easy chair and allowed to take a rest for 30 minutes. Thereafter, a probe of the flow-meter was fitted to the inner surface side of the third finger of the right hand of the subject, and a change in blood circulation rate with the passage of time was recorded. One sequence of measurement tests was composed of (A) a rest for three minutes, (B) attaching of an odorless cotton piece under the nose for three minutes, (C) a rest for three minutes, (D) attaching of a test sample-impregnated cotton piece under the nose for three minutes, (E) a rest for three minutes, (F) attaching of an odorless cotton piece under the nose for three minutes, and (G) a rest for three minutes. The blood circulation rate was measured successively during the one sequence. […]
SMILES,skin temperatures of the fingers [1],skin temperatures of the cheeks [1],skin temperatures of the toes [1],sympathetic nerve suppressing effect (sympathetic nerve),rate of the skin blood circulation (summary of findings) [2]
CCCCC1OC(=O)CC1C (stereo not shown) [3-methyloctano-4-lactone],increased,could be increased,could be increased,has a sympathetic nerve suppressing effect,increases
CC(=O)OC1CC2CCC1(C)C2(C)C (stereo not shown) [bornyl acetate],increased,could be increased,could be increased,has a sympathetic nerve suppressing effect,increases
